The source of these data is ChEMBL document CHEMBL1201862, “PubChem BioAssay data set” (2004).

Counter-ions that a name gives are not always drawn. Calls of active or inactive are those of the source.

One test deals with T1, Caspase-3 (Homo sapiens, UniProt P42574).
T1 sequence (P42574 whole entry): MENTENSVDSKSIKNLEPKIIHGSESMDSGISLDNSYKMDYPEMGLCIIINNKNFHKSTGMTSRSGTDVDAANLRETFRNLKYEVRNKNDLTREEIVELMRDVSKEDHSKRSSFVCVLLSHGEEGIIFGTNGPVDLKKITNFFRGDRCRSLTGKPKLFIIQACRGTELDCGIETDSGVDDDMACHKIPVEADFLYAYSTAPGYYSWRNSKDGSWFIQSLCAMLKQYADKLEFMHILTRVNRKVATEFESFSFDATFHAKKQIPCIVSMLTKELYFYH
Briefly: activators of human procaspase-3 D3A mutant – biochemical, absorbance, PC-3 D3A mutant, counter-screen for dual procaspase-3/7 activator project, dose response (AID 504328).

The next test concerns the target Caspase-7 (Homo sapiens, UniProt P55210). Briefly: potency of procaspase-7 enzyme activation – biochemical, absorbance, human, dual procaspase-3/-7 activator project, dose response (AID 504330).
In test [1] the target is T2, Insulin-degrading enzyme (Homo sapiens, UniProt P14735).
T2 sequence (P14735 whole entry): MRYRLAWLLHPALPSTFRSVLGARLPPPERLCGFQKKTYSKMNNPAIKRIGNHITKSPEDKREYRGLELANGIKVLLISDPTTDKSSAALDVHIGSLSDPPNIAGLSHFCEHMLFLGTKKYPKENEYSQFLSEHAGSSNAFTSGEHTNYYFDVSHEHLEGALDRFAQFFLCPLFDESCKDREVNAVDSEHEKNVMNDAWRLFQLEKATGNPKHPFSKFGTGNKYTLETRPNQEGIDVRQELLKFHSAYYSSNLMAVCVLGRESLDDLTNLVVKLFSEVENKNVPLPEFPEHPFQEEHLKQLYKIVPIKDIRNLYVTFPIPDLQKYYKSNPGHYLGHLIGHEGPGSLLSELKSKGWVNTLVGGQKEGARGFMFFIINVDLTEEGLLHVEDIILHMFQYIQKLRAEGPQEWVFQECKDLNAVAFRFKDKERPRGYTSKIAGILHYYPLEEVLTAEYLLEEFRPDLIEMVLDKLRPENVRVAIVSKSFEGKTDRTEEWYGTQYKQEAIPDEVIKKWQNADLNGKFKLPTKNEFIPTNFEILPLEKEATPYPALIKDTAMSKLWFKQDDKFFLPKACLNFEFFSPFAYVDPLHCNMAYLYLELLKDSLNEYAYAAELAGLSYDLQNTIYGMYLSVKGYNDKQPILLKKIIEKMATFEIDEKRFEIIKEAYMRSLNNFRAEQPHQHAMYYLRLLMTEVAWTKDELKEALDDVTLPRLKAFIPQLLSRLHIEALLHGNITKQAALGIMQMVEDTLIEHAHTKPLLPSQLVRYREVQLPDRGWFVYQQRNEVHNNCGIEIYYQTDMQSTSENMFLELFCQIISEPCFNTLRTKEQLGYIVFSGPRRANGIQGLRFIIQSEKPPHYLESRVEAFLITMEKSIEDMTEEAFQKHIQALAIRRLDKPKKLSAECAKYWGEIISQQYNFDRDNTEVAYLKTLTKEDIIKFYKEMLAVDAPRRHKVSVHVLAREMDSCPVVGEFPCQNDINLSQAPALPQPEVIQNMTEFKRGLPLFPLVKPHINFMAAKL
Put plainly: cellular IDE activation of Abeta substrate cleavage – fluorescence polarization, HEK cells, dose response (AID 588439). The class given is functional, cell-based. (In general: Fluorescence polarisation rises when a labelled molecule tumbles more slowly, as on binding a larger partner.)

Another test addresses ORF 73 (Human herpesvirus 8, UniProt O40947). Briefly: KSHV LANA DNA-binding disruption – biochemical, fluorescence polarization, cherry-picked samples, dose response (AID 504725).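 Also: fluorescence polarization of a labeled DNA duplex reporting LANA DNA binding; potency is for inhibitors that block LANA binding to the DNA.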 Set-up: species or system Human gammaherpesvirus 8.
Another test addresses Nonstructural protein 1 (Influenza A virus, UniProt Q194T2). The class given is functional, Influenza A virus (A/California/07/2009(H1N1)).
For the next test, the target named is T3, fMet-Leu-Phe receptor (Homo sapiens, UniProt P21462).
T3 sequence (P21462 whole entry): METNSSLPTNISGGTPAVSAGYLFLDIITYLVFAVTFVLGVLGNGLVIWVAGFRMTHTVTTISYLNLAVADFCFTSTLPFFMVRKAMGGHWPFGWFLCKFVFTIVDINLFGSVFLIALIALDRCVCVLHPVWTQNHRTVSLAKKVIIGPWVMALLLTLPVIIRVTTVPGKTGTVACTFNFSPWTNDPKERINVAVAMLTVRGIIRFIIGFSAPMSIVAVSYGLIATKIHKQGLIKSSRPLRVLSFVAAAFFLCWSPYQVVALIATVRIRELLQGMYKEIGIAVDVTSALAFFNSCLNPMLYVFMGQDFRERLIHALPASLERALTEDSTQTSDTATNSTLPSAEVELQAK
Put plainly: formyl peptide receptor binders – dose response (AID 519). The class given is functional.

The target in the next test is Protein S100-A4 (Homo sapiens, UniProt P26447). Put plainly: human S100A4 peptide interaction inhibition curves – biochemical, fluorescence polarization, cherry-picked hits, dose response (AID 687001). The class given is functional.
The subject of another test is HeLa. Briefly: viability loss in HeLa cells – cell-based, 24 h, cherry-picked samples, cytotoxicity control, dose response (AID 504726).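 Also: potency for cytotoxicity as loss of luminescence signal.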 The class given is functional. Conditions: Homo sapiens.
For test [2], the system named is HEK293. Briefly: optical interference in Abeta FP readout, dose response, artefact control for IDE activator project, biochemical, fluorescence polarization (AID 588442). The format is functional, cell-based. Conditions: Homo sapiens.
In another test the target is Paired box protein Pax-8 (Homo sapiens, UniProt Q06710). Briefly: PAX8 transcriptional activity inhibition in RMG-I – RMG-I cells, luciferase, cherry-pick, dose response (AID 687027).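 Also: luciferase reporter driven by Pax8 target thyroperoxidase promoter measured by SteadyGlo luminescence.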 The format is functional, cell-based.
The target of the next test is 14-3-3 protein gamma (Homo sapiens, UniProt P61981). Briefly: modulators of 14-3-3 gamma client binding – dose response (AID 711). The class given is functional.
Test [3] has as its target Aryl hydrocarbon receptor (Homo sapiens, UniProt P35869). Conditions: Potency.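 Also: confirmatory quantitative high-throughput screen measuring activation of the AhR signaling pathway.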
The target of test [4] is T2, Insulin-degrading enzyme. Briefly: recombinant IDE activation, cell-free – biochemical, fluorescence polarization, counter-screen for IDE activator project, dose response (AID 588681).
Test [5] has as its system HEK293. Briefly: membrane integrity loss in HEK cells – cell-based, fluorescence, cytotoxicity control for IDE activator project, dose response (AID 588440).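 Also: cytotoxicity by LDH release measuring loss of membrane integrity.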 The class given is functional. Conditions: Homo sapiens.
The target in test [6] is Melanin-concentrating hormone receptor 1 (Homo sapiens, UniProt Q99705). Briefly: Late-stage fluorescence-based counterscreen for antagonists of the G-protein coupled receptor 7 (GPR7): cell-based dose response assay to identify antagonists of the melanin-concentrating hormone receptor 1 (MCHR1). [Related pubchem assays (depositor defined):AID1861, AID1880, AID1952, AID2148, AID2251, AID2257, AID485339]. The class given is functional. A general note: A counterscreen serves to expose hits that act by an unwanted route or on another target.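 Also: stimulated with 30 nM MCH peptide agonist.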

Test [7] deals with Neuropeptides B/W receptor type 1 (Homo sapiens, UniProt P48145). Put plainly: human NPBW1 receptor blockade, IC50 – cell-based, fluorescence, dose response, late-stage follow-up (AID 463251). The class given is functional.
Test [8] concerns Streptococcus sp. 'group A'. Put plainly: Streptococcus pyogenes SK(-)GAS viability under kanamycin – luminescence, BacTiterGlo, confirmation, counter-screen for streptokinase expression inhibitor project, dose response (AID 1900). The format is functional, organism-based.
In test [9] the target is T4, Intestinal-type alkaline phosphatase (Homo sapiens, UniProt P09923). Briefly: human intestinal alkaline phosphatase activators, dose response, biochemical, luminescence, uHTS hits (AID 463120). The class given is functional.
For test [10], the target named is Intestinal-type alkaline phosphatase (Mus musculus, UniProt P24822). Put plainly: PubChem AID 488875. The class given is functional.
Test [11] concerns the target NACHT, LRR and PYD domains-containing protein 3 (Homo sapiens, UniProt Q96P20). Put plainly: NALP3 inhibitors in yeast, dose response, luminescent (AID 488799). The format is functional.
Test [12] addresses T4, Intestinal-type alkaline phosphatase. Briefly: activation of human intestinal alkaline phosphatase – biochemical, luminescent, uHTS hits, set 2, dose response (AID 488817).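 Also: potency of activators that raise enzyme activity.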 The format is functional.
The target of test [13] is T5, Alkaline phosphatase, tissue-nonspecific isozyme (Homo sapiens, UniProt P05186).
T5 sequence (P05186 whole entry): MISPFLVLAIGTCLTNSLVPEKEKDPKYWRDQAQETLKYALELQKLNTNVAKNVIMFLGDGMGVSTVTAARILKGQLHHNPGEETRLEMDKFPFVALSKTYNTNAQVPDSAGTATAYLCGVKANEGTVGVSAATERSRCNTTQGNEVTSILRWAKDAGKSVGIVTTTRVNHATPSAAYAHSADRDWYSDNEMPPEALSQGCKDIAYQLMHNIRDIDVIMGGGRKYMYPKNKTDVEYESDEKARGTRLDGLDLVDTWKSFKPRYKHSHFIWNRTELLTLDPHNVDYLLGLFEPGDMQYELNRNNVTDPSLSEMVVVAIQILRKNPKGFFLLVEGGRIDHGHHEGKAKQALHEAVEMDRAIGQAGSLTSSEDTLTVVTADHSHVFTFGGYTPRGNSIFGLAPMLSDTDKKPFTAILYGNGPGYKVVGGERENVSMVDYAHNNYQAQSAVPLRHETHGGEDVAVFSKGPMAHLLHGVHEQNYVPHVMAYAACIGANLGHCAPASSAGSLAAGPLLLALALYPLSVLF
Put plainly: activation of tissue-nonspecific alkaline phosphatase – biochemical, TNAP isozyme, human IAP uHTS hits, selectivity assay for human IAP activator project, dose response (AID 488886).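 Also: potency of compounds raising TNAP activity as a selectivity check on IAP activators.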 The class given is functional.

For a further test, the system named is Streptococcus. Briefly: GAS UMAA2166 growth inhibition – luminescence, BacTiterGlo, counter-screen for streptokinase expression inhibitor project, dose response (AID 1915).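 Also: potency for reduction of bacterial viability or growth.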 The format is functional, organism-based.
The target in test [14] is 26S proteasome non-ATPase regulatory subunit 14 (Homo sapiens, UniProt O00487). Briefly: inhibition of proteasome subunit RPN11 – biochemical, fluorescence polarization, uHTS hits, confirmation (AID 602368). The format is functional.
Test [15] deals with Eukaryotic translation initiation factor 4E (Mus musculus, UniProt P63073). Put plainly: blockers of eIF4G binding by eIF4E – biochemical, TR-FRET, dose response (AID 855).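 Also: potency for disrupting eIF4E binding to eIF4GI seen as loss of FRET.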 The format is functional. Background: In TR-FRET formats the signal depends on donor and acceptor labels being close together.
Test [16] addresses T6, Voltage-gated N-type calcium channel alpha-1B subunit/Amyloid beta A4 precursor protein-binding family A member 1 (Homo sapiens, UniProt Q00975+Q02410). The class given is protein assay.
For test [17], the target named is T6, Voltage-gated N-type calcium channel alpha-1B subunit/Amyloid beta A4 precursor protein-binding family A member 1. The format is protein assay. This is another data set of the same source.
Another test addresses Prothrombin (Bos taurus, UniProt P00735). Briefly: thrombin protease inhibitors – biochemical, fluorescence polarization, uHTS hits, dose response (AID 602369). The class given is functional.
The target of test [18] is Induced myeloid leukemia cell differentiation protein Mcl-1 (Homo sapiens, UniProt Q07820). The class given is functional.
Test [19] concerns the target 72 kDa type IV collagenase (Homo sapiens, UniProt P08253). Put plainly: Dose Response validation of uHTS RPN11 inhibitor hits using a MMP-2 Fluorescence assay. The class given is functional.
Test [20] deals with G-protein coupled receptor 35 (Homo sapiens, UniProt Q9HC97). Briefly: inhibition of zaprinast-stimulated GPR35 beta-arrestin translocation – imaging, U2OS, beta-arrestin-GFP, zaprinast agonist, primary screen (AID 2058).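 Also: antagonist potency meaning inhibition of agonist-induced arrestin redistribution.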 The class given is functional.

T4 sequence (P09923 whole entry): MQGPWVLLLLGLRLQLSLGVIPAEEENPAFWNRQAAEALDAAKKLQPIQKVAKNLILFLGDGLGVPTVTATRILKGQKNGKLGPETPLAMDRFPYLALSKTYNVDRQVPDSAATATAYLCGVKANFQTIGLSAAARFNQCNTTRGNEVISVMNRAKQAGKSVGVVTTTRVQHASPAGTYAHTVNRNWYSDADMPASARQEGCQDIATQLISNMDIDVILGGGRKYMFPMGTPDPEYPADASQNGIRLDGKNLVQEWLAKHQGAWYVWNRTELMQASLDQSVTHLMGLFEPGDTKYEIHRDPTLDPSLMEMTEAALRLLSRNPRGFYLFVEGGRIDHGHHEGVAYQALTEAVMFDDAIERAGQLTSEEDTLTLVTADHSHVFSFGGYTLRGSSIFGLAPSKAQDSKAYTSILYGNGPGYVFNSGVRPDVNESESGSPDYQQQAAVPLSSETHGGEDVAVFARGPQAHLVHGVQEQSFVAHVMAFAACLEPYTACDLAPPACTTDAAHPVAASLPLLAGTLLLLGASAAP
Sequence of Nonstructural protein 1 (Q194T2 whole entry): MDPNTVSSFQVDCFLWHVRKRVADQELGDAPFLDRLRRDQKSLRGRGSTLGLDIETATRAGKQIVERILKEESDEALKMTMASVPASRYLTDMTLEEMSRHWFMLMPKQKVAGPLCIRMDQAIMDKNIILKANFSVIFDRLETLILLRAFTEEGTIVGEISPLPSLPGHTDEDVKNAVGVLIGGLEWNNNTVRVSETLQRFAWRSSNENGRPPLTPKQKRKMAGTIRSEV
T6 sequence (Q00975 whole entry): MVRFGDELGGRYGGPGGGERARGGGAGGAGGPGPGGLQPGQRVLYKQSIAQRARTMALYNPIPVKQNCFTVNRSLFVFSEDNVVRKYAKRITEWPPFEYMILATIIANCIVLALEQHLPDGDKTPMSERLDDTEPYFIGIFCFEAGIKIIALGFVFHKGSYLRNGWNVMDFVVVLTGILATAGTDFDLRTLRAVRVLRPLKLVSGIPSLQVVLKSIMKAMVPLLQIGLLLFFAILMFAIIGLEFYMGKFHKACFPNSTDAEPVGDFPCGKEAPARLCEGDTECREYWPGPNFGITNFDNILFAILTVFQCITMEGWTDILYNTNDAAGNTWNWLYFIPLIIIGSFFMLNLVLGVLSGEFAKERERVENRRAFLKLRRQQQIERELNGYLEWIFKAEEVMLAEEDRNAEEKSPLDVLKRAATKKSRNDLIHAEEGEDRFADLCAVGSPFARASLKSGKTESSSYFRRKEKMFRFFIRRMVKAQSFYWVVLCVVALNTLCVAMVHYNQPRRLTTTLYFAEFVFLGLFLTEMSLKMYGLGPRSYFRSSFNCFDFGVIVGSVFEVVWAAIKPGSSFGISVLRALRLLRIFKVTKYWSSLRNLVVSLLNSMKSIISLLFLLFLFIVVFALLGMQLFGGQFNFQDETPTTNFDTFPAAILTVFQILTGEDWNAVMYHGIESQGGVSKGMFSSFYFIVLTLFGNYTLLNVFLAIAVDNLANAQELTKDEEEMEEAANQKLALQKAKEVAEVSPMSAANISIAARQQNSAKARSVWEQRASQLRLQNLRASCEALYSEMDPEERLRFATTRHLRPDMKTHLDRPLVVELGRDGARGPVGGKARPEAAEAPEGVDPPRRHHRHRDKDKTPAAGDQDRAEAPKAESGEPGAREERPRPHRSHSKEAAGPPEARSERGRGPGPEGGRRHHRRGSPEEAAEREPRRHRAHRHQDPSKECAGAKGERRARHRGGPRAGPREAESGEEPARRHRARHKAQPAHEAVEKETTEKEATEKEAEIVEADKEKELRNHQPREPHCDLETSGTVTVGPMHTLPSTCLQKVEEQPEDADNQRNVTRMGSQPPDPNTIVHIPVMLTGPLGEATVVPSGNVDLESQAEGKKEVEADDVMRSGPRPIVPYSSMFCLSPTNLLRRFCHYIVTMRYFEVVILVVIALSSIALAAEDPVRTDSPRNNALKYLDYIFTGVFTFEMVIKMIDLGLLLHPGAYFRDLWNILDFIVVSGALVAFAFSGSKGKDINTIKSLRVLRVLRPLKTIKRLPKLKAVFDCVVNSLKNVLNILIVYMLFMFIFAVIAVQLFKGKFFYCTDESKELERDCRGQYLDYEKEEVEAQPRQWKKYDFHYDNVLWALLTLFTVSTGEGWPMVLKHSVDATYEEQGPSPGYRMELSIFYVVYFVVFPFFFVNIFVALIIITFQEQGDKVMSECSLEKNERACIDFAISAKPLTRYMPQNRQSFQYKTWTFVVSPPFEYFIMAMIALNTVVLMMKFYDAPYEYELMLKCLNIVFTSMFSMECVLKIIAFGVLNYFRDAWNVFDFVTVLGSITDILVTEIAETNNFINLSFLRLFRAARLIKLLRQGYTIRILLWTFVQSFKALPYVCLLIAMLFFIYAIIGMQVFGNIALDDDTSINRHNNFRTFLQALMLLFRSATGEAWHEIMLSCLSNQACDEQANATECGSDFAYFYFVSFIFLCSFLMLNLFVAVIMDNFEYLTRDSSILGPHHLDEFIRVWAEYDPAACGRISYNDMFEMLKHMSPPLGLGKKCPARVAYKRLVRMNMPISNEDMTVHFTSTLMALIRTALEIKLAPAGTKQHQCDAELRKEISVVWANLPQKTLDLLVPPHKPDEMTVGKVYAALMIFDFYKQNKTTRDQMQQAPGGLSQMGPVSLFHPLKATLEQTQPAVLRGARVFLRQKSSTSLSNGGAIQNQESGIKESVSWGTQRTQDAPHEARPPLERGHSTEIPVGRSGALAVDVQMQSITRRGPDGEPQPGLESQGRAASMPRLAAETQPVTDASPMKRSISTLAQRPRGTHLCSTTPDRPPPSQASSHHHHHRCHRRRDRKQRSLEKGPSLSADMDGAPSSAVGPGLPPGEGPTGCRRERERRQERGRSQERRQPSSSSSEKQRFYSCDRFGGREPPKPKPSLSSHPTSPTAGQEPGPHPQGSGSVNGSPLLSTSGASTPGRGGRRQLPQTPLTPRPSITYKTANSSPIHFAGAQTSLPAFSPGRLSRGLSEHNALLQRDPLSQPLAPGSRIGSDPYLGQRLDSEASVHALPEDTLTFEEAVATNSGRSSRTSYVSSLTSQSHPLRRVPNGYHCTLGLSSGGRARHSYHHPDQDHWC
T6 sequence (Q02410 whole entry): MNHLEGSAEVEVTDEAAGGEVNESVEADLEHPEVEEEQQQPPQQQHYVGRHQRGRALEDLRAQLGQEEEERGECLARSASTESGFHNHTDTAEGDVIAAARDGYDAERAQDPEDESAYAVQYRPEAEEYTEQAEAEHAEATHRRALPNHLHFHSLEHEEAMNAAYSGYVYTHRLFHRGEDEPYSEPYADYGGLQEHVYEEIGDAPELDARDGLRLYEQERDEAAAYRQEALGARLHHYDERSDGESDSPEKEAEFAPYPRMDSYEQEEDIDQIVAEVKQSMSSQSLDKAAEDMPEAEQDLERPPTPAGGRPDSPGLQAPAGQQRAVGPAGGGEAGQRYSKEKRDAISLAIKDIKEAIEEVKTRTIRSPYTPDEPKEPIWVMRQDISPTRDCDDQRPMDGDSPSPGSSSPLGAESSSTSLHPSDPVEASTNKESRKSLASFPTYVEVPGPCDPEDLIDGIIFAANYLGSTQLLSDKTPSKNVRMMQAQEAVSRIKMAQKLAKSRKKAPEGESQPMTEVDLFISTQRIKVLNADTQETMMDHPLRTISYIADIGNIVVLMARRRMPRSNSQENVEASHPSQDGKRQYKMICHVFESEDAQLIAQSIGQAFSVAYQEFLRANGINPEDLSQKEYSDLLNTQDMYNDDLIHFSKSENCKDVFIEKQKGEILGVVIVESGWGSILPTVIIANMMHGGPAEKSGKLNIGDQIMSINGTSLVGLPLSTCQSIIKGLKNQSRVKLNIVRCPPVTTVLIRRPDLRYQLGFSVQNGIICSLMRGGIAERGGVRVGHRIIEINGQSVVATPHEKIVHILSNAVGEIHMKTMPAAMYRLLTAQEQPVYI
Sequence of Aryl hydrocarbon receptor (P35869 whole entry): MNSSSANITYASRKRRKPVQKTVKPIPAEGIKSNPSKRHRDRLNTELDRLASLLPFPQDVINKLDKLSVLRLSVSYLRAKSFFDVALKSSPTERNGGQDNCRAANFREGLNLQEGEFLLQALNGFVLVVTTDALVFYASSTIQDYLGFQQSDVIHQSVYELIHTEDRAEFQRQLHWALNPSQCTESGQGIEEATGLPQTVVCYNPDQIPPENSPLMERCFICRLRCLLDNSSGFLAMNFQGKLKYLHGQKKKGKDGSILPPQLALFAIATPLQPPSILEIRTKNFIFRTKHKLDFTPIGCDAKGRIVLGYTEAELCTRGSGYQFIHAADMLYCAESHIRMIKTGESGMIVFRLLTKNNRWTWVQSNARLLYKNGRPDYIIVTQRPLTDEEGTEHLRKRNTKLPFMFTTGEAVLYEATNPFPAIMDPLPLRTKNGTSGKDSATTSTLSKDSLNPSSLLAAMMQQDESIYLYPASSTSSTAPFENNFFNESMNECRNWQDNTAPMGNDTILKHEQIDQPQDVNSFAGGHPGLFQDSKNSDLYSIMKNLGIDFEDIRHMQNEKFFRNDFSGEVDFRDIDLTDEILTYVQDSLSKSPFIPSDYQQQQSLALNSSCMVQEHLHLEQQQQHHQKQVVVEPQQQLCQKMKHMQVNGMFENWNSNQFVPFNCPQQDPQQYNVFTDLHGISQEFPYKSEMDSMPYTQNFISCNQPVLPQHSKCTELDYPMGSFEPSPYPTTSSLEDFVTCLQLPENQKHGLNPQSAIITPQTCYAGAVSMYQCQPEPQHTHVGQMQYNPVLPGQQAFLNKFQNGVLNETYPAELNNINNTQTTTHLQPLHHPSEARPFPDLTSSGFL
Sequence of Protein S100-A4 (P26447 whole entry): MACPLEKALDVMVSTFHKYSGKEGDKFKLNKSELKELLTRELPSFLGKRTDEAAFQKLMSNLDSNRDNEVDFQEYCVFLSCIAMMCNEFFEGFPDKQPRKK

What is called EC50 is the concentration at which the effect is half-maximal. As for `COc1ccc2c(c1OC)C(=O)OC2CC(=O)c1ccc(N(C)C)cc1` (configuration not stated), the EC50 on Caspase-3 and at Caspase-7 was > 85.3 µM (inactive) each time.

For orientation: AC50 means the concentration giving half of the maximal activity seen. As a reminder, the IC50 is the point on the concentration scale where inhibition reaches its midpoint. The Ki is a measure of affinity in units of concentration, obtained from inhibition or displacement. As to `COc1cccc2c1C(=O)c1c(O)c3c(c(O)c1C2=O)C[C@@](O)(C(C)=O)C[C@@H]3O[C@H]1C[C@H](N)[C@H](O)[C@H](C)O1` [DAUNORUBICIN HYDROCHLORIDE], the EC50 on Insulin-degrading enzyme [1], in the test on HEK293 [2] and on Insulin-degrading enzyme [4] was > 54.7 µM (inactive) each time. Also, the AC50 is 2.36 µM (active) on ORF 73; 235 nM (active) at Protein S100-A4; 1.73 µM (active) in the test on HeLa; 1.55 µM (active) on Paired box protein Pax-8; 12.6 µM (inconclusive) in test [3]. The half-maximal inhibitory concentration (IC50) at Nonstructural protein 1 is 32.7 µM (active); at 14-3-3 protein gamma, < 781 nM (active); in the test with HEK293 [5], 17.7 µM (inactive). The Ki on fMet-Leu-Phe receptor was > 66.7 µM (inactive).

Turning to `Cc1ccc(-n2ncc(Cl)c(Oc3ccc(C(F)(F)F)cc3)c2=O)cc1`, the results for the IC50 in [6] and in [7] were 5.5 µM (active) and 2.2 µM (active), respectively.

Consider `O=C(NC(=S)NNC(=O)c1ccccc1O)c1ccc(F)cc1`, for which the EC50 in test [8] was 3.21 µM (active); in [9], 8.25 µM (active); in test [10], > 100 µM (inactive); in test [12], 12.2 µM (active); in test [13], 12.4 µM (active); with Streptococcus, 7.74 µM (active). Also, the IC50 on Nonstructural protein 1 was 12.2 µM (active); in test [11] it was 7.94 µM (active).

For the molecule `N=C1/C(=C/c2ccc(-c3cccc(C(=O)O)c3)o2)C(=O)N=C2SC=C(c3ccccc3)N12`, the IC50 in [14] is 5.82 µM (active); in [15], 18.1 µM (active); in test [16], 13.3 µM (active); in test [17], > 50 µM (inactive); at Prothrombin it was 10.2 µM (active); in [18], > 54 µM (active). Moreover, the IC50 in [19] is 6.29 µM (active); in [20], 1.1 µM (active).
